Laboratory results taken from publication PMC10000267, “ALA‐A2 Is a Novel Anticancer Peptide Inspired by Alpha‐Lactalbumin: A Discovery from a Computational Peptide Library, In Silico Anticancer Peptide Screening and In Vitro Experimental Validation” (Global Challenges, 2023).
Residues, ends and D or L forms follow the SMILES beside them.

Key:
[1] = test system: A549 lung adenocarcinoma cells; settings: A549, 200 µM, 24 h; SWATH; n = 9 per group
Experimental: In brief, A549 lung adenocarcinoma cells were seeded at a density of 1 × 10^5 cells/well in a 24‐well plate. After overnight incubation, the media were changed with fresh media with or without 200 µM ALA‐A2 and incubated at 37 °C in 5%CO2 for 24 h. The cells were washed twice with PBS before lysis with Laemmli lysis buffer (62.5 mM Tris‐HCl, pH 6.8, 10% v/v glycerol, 2% w/v SDS, and 2.5% v/v beta‐mercaptoethanol). Total protein was quantified using the Bradford protein assay (Bio‐Rad, Hercules, USA). 10 µg of protein was resolved by 12% SDS–PAGE before staining with Coomassie brilliant blue G‐250, and the gel was cut into small pieces for in‐gel tryptic digestion. An amount of peptide sample corresponding to 2.5 µg of total protein was resolved in an Eksigent nanoLC ultra nanoflow high performance liquid chromatography in tandem with a TripleTOF 6600+ mass spectrometer (ABSciex, Toronto, Canada) set for information‐dependent acquisition (IDA) and DIA modes. The peptides were loaded onto a C18 column trap (Nano Trap RP‐1, 3 µm 120 Å, 10 mm × 0.075 mm; Phenomenex, CA, USA) at a flow rate of 3 µL min^−1 of 0.1% formic acid in water for 10 min to desalt and concentrate the sample, which was then resolved by HPLC using a stationary phase of a C18 analytical column (bioZen Peptide Polar C18 nanocolumn, 75 µm × 15 cm, particle size 3 µm, 120 Å; Phenomenex) with mobile phase gradients at a flow rate of 300 nL min^−1 of 3–30% acetonitrile/0.1% formic acid for 60 min, 30–40% acetonitrile/0.1% formic acid for 10 min, 40–80% acetonitrile/0.1% formic acid for 2 min, 80% acetonitrile/0.1% formic acid for 6 min, 80–3% acetonitrile/0.1% formic acid for 2 min, and 3% acetonitrile/0.1% formic acid for 25 min. The eluate was ionized and sprayed into the mass spectrometer using OptiFlow Turbo V Source (Sciex). Ion source gas 1, ion source gas 2, and curtain gas were set at 19, 0, and 25 vendor arbitrary units, respectively. The interface heater temperature was 150 °C and ion spray voltage was 3.3 kV.
Each cycle performed one time of flight (TOF) scan (250 ms accumulation time, 350–1250 m/z window with a charge state of +2) followed by IDA of the 100 most intense ions, while the minimum MS signal was set to 150 counts. The MS/MS scan was operated in high sensitivity mode with 50 ms accumulation time and 50 ppm mass tolerance. Former MS/MS candidate ions were excluded for a period of 12 s after their first occurrence to reduce the redundancy of identified peptides. DIA mode was performed in a range of 350–1500 m/z using a predefined mass window of 7‐m/z with an overlap of 1‐m/z for 157 transmissible windows. MS scan was set at 2044 cycles, where each cycle performed one TOF‐MS scan type (50 ms accumulation time across 100–1500 precursor mass range) acquired in every cycle for a total cycle time of 3.08 s. MS spectra of 100–1500 m/z were collected with an accumulation time of 96 ms per SWATH window width. Resolution for MS1 was 35 000 and SWATH‐MS2 scan was 30 000. Rolling collision energy mode with collision energy spread of 15 eV was applied. The IDA and DIA data (.wiff) were recorded by Analyst‐TF v.1.8 software (ABSciex).
A total of 18 wiff files of IDA experiments (two groups; three biological replicates per group; three technical replicates per biological sample) were combined and searched using Protein Pilot v.5.0.2.0 software (ABSciex) against the Swiss‐Prot database (UniProtKB 2022_01) Homo sapiens (20385 proteins in database) with the searching parameters as follows; alkylation on cysteine by iodoacetamide, trypsin enzymatic digestion, one missed cleavage allowed, monoisotopic mass, and 1% false discovery rate.

Human red blood cells = test: Ex vivo hemolysis assay (RBC lysis assay); type: cell-based; settings: ≈0.8% v/v human RBC suspension in 0.9% normal saline, peptide 200 µM, 1 h, room temperature, absorbance 415 nm, relative to 1% Triton X‐100; blood of three healthy individuals, mean ± SD
Experimental: The hemolysis assay was as described previously.^[ [30] ^] After informed consent, peripheral blood (3 mL) was collected from three healthy individuals into heparin tubes (BD Biosciences, NJ, USA). The specimen was centrifuged at 2000 × g for 5 min at room temperature, and the plasma was discarded. The RBCs were washed twice with PBS and then resuspended in 0.9% normal saline solution at a volume equivalent to that of the original plasma. Approximately 0.8% v/v RBC suspension was incubated with the peptides at 200 µM (100 µL final volume) in a U‐bottom 96‐well plate at room temperature for 1 h with agitation. 1% v/v Triton X‐100 was applied as a positive control. The untreated condition served as the blank control. After 1 h incubation, the supernatants were collected by centrifuging at 2000 × g for 5 min at room temperature. The absorbance of hemoglobin in the supernatant was measured at 415 nm. The hemolysis percentage was calculated as follows: (2) % Hemolysis = [sample absorbance−blank control/positive control−blank control] × 100

CC(C)C[C@H](NC(=O)[C@@H](N)CCCCN)C(=O)N[C@@H](Cc1c[nH]c2ccccc12)C(=O)N[C@@H](CS)C(=O)N[C@@H](CCCCN)C(=O)N[C@@H](CO)C(=O)N[C@@H](CO)C(=O)N[C@@H](CCC(N)=O)C(=O)N[C@H](C(=O)N1CCC[C@H]1C(=O)N[C@@H](CCC(N)=O)C(=O)N[C@@H](CO)C(=O)N[C@@H](CCCNC(=N)N)C(=O)O)C(C)C [ALA‐A2] (H-KLWCKSSQVPQSR-OH)
Fold‐change [treated/ untreated]: 40S ribosomal protein SA (RSSA, P08865) [1]: 0.25
Fold‐change [treated/ untreated]: 60S ribosomal protein L6 (RL6, Q02878) [1]: 2.87
Fold‐change [treated/ untreated]: Actin, cytoplasmic 2 (ACTG, P63261) [1]: 0.09
Fold‐change [treated/ untreated]: Aldo‐keto reductase family 1 member B10 (AK1BA, O60218) [1]: 0.29
Fold‐change [treated/ untreated]: Annexin A4 (ANXA4, P09525) [1]: 2.98
Fold‐change [treated/ untreated]: Annexin A7 (ANXA7, P20073) [1]: 3.29
Fold‐change [treated/ untreated]: Chloride intracellular channel protein 1 (CLIC1, O00299) [1]: 3.02
Fold‐change [treated/ untreated]: Elongation factor 1‐alpha‐like 3 (EF1A3, Q5VTE0) [1]: 0.15
Fold‐change [treated/ untreated]: Elongation factor 1‐gamma (EF1G, P26641) [1]: 0.31
Fold‐change [treated/ untreated]: Endoplasmin (ENPL, P14625) [1]: 0.38
Fold‐change [treated/ untreated]: Glyceraldehyde‐3‐phosphate dehydrogenase (G3P, P04406) [1]: 0.32
Fold‐change [treated/ untreated]: Heat shock 70 kDa protein 8 (HSPA8, P11142) [1]: 0.25
Fold‐change [treated/ untreated]: Heat shock protein HSP90 alpha (HSP90AA1, P07900) [1]: 0.26
Fold‐change [treated/ untreated]: Heat shock protein HSP90 beta (HSP90AB1, P08238) [1]: 0.40
Fold‐change [treated/ untreated]: Heterogeneous nuclear ribonucleoprotein A/B (ROAA, Q99729) [1]: 2.35
Fold‐change [treated/ untreated]: Heterogeneous nuclear ribonucleoproteins A2/B1 (ROA2, P22626) [1]: 0.25
Fold‐change [treated/ untreated]: Histone H1.3 (H13, P16402) [1]: 0.32
Fold‐change [treated/ untreated]: Histone H2A type 2‐A (H2A2A, Q6FI13) [1]: 0.48
Fold‐change [treated/ untreated]: Histone H4 (H4, P62805) [1]: 0.26
Fold‐change [treated/ untreated]: Hsp70‐binding protein 1 (HPBP1, Q9NZL4) [1]: 0.48
Fold‐change [treated/ untreated]: Importin‐5 (IPO5, O00410) [1]: 2.22
Fold‐change [treated/ untreated]: Junction plakoglobin (PLAK, P14923) [1]: 2.05
Fold‐change [treated/ untreated]: Keratin, type I cytoskeletal 18 (K1C18, P05783) [1]: 0.35
Fold‐change [treated/ untreated]: Keratin, type I cytoskeletal 19 (K1C19, P08727) [1]: 0.34
Fold‐change [treated/ untreated]: Leucine‐rich PPR motif‐containing protein (LPPRC, P42704) [1]: 2.06
Fold‐change [treated/ untreated]: Neurofibromin (NF1, P21359) [1]: 0.07
Fold‐change [treated/ untreated]: Peroxiredoxin‐1 (PRDX1, Q06830) [1]: 0.26
Fold‐change [treated/ untreated]: Pyruvate kinase PKM (KPYM, P14618) [1]: 0.43
Fold‐change [treated/ untreated]: RNA‐binding protein Raly (RALY, Q9UKM9) [1]: 3.57
Fold‐change [treated/ untreated]: Serine/arginine‐rich splicing factor 3 (SRSF3, P84103) [1]: 0.33
Fold‐change [treated/ untreated]: TAR DNA‐binding protein 43 (TADBP, Q13148) [1]: 4.07
Fold‐change [treated/ untreated]: Threonine‐tRNA ligase 1 (SYTC, P26639) [1]: 2.61
Fold‐change [treated/ untreated]: Transaldolase (TALDO, P37837) [1]: 0.43
Fold‐change [treated/ untreated]: Transketolase (TKT, P29401) [1]: 0.35
Fold‐change [treated/ untreated]: Tubulin beta chain (TBB5, P07437) [1]: 0.27
Fold‐change [treated/ untreated]: T‐complex protein 1 subunit delta (TCPD, P50991) [1]: 2.39
Fold‐change [treated/ untreated]: T‐complex protein 1 subunit gamma (TCPG, P49368) [1]: 0.46
Fold‐change [treated/ untreated]: Ubiquitin‐60S ribosomal protein L40 (UBA52, P62987) [1]: 0.41
percent hemolysis (Human red blood cells): 7.8% ± 10.2%
